The source made the active and inactive calls. The rule behind the calls is not given here.
Tests used:
HCT-116 [1] = test: Induction of cell cycle arrest in human HCT-116 assessed as accumulation of cells in G2/M phase at 1 to 5 uM incubated for 24 hrs by FACS analysis relative to SAHA; assay type: functional; conditions: dose 1-5 µM
HCT-116 [2] = test: Induction of apoptosis in human HCT-116 cells assessed as increased p21 protein expression level at 1 to 5 uM incubated for 24 hrs by immunoblotting analysis; assay type: functional, cell-based; conditions: dose 1-5 µM
Histone deacetylase = assay type: subcellular, Homo sapiens, Nucleus; conditions: hela
Description: Inhibition of HDAC in human HeLa cell nuclear extract using Kac fluorogenic peptide as substrate containing residues 379-382 of p53 by fluorescence assay

U-937 [3] = test: Induction of cell cycle arrest in human U-937 assessed as increase accumulation of cells in G2/M phase at 1 to 5 uM incubated for 24 hrs by FACS analysis; assay type: functional, cell-based; conditions: dose 1-5 µM
[4] = target: T1, Histone deacetylase (Homo sapiens) (UniProt Q13547+O15379+Q9UBN7+Q92769+Q9UQL6+Q8WUI4+Q9BY41+Q96DB2+P56524+Q9UKV0+Q969S8); test: Inhibition of HDAC in human U-937 cells assessed as upregulation of histone H3 acetylation at lysine 14 residue at 5 uM incubated for 24 hrs by immunoblotting analysis; assay type: cell-based
U-937 [5] = test: Induction of apoptosis in human U-937 cells assessed as increased p21 protein expression level at 1 to 5 uM incubated for 24 hrs by immunoblotting analysis; assay type: functional, cell-based; conditions: dose 1-5 µM
U-937 [6] = test: Induction of cell cycle arrest in human U-937 assessed as reduced accumulation of cells in S phase at 1 uM incubated for 24 hrs by FACS analysis; assay type: functional, cell-based
HCT-116 [7] = test: Cytotoxicity against human HCT-116 cells assessed as reduction in cell death at 1 uM incubated for 24 hrs by PI staining based FACS analysis; assay type: functional
U-937 [8] = test: Cytotoxicity against human U-937 cells assessed as cell death at 1 to 5 uM incubated for 24 hrs by PI staining based FACS analysis relative to control; assay type: functional; conditions: dose 1-5 µM
U-937 [9] = test: Induction of cell cycle arrest in human U-937 assessed as decrease accumulation of cells in G1 phase at 5 uM incubated for 24 hrs by FACS analysis; assay type: functional, cell-based
[10] = target: T1, Histone deacetylase (Homo sapiens); test: Inhibition of HDAC in human HCT-116 cells assessed as upregulation of acetyl alpha-tubulin level at 1 to 5 uM incubated for 24 hrs by immunoblotting analysis; assay type: cell-based; conditions: dose 1-5 µM
HCT-116 [11] = test: Cytotoxicity against human HCT-116 cells assessed as cell death at 5 uM incubated for 24 hrs by PI staining based FACS analysis relative to control; assay type: functional
[12] = target: T1, Histone deacetylase (Homo sapiens); test: Inhibition of HDAC in human U-937 cells assessed as upregulation of acetyl alpha-tubulin level at 5 uM incubated for 24 hrs by immunoblotting analysis; assay type: cell-based
[13] = target: T1, Histone deacetylase (Homo sapiens); test: Inhibition of HDAC in human U-937 cells assessed as upregulation of histone H3 acetylation at lysine 14 residue at 1 uM incubated for 24 hrs by immunoblotting analysis; assay type: cell-based
[14] = target: T2, Protein deacetylase HDAC6 (Homo sapiens) (UniProt Q9UBN7); test: Inhibition of HDAC6 (unknown origin) at 10 uM using fluorogenic peptide as substrate pre-incubated for 15 mins followed by substrate addition incubated for 30 mins by fluorescence assay; conditions: time 45.0 min
T2 sequence (whole entry): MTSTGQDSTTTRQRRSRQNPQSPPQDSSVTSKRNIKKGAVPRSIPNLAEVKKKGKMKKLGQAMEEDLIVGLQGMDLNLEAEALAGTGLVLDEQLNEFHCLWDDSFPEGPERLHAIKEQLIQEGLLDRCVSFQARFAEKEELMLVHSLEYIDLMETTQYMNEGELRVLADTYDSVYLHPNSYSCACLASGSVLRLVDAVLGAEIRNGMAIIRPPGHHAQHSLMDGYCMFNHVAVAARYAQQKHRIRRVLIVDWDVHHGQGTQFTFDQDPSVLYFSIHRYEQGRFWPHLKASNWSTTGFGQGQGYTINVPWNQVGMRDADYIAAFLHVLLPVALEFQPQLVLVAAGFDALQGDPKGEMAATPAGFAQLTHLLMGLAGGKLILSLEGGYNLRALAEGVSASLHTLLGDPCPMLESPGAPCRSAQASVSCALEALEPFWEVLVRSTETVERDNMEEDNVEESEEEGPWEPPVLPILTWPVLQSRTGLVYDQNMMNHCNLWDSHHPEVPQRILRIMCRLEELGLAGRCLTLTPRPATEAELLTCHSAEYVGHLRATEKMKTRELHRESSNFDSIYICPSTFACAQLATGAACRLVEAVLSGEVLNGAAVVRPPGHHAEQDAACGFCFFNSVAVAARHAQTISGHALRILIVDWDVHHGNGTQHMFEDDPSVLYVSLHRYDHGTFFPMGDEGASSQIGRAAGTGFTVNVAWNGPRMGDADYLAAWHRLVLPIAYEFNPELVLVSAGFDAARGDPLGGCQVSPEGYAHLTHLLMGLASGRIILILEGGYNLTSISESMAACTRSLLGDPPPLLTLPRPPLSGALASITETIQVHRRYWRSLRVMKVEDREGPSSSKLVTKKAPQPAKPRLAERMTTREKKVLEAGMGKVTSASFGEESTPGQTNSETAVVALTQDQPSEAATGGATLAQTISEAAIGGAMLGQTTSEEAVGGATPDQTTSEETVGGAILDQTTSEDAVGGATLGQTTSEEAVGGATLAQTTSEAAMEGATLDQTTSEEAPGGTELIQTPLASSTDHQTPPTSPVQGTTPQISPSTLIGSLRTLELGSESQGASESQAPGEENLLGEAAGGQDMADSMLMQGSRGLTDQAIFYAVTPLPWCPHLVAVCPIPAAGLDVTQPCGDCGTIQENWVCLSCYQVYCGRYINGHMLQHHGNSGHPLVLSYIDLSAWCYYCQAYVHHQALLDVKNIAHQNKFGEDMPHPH

Histone deacetylase 1 [15] = target: T3, Histone deacetylase 1 (Homo sapiens, UniProt Q13547); test: Inhibition of HDAC1 (unknown origin) at 10 uM using fluorogenic peptide as substrate pre-incubated for 15 mins followed by substrate addition incubated for 30 mins by fluorescence assay relative to control; conditions: time 45.0 min
T3 sequence (Q13547 whole entry): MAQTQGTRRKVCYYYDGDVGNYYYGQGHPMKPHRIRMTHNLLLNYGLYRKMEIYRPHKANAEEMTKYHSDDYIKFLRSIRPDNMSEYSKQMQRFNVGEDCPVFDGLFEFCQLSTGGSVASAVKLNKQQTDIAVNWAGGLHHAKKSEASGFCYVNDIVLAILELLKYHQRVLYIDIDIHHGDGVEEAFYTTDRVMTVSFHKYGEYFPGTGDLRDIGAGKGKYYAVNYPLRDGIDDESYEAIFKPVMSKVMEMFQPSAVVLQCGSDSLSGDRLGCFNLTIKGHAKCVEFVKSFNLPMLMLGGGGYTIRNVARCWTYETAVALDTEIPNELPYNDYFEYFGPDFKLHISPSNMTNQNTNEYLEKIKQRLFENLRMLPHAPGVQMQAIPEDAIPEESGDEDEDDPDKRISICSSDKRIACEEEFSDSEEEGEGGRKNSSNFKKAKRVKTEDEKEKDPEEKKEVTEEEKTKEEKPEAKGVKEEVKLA

[16] = target: T1, Histone deacetylase (Homo sapiens); test: Inhibition of HDAC in human HCT-116 cells assessed as upregulation of histone H3 acetylation at lysine 14 residue at 1 uM incubated for 24 hrs by immunoblotting analysis; assay type: cell-based
HCT-116 [17] = test: Induction of cell cycle arrest in human HCT-116 assessed as decrease accumulation of cells in G1 phase at 1 to 5 uM incubated for 24 hrs by FACS analysis; assay type: functional, cell-based; conditions: dose 1-5 µM
HCT-116 [18] = test: Induction of cell cycle arrest in human HCT-116 assessed as decrease accumulation of cells in S phase at 1 to 5 uM incubated for 24 hrs by FACS analysis; assay type: functional, cell-based; conditions: dose 1-5 µM
Histone deacetylase 1 [19] = target: T3, Histone deacetylase 1; test: Inhibition of HDAC1 (unknown origin) using fluorogenic peptide as the substrate containing residues 379-382 of p53 pre-incubated for 15 mins followed by substrate addition incubated for 30 mins by multimode plate reader
U-937 [20] = test: Induction of cell cycle arrest in human U-937 assessed as decrease accumulation of cells in S phase at 1 to 5 uM incubated for 24 hrs by FACS analysis; assay type: functional, cell-based; conditions: dose 1-5 µM
U-937 [21] = test: Induction of cell cycle arrest in human U-937 assessed as decrease accumulation of cells in G1 phase at 1 to 5 uM incubated for 24 hrs by FACS analysis; assay type: functional, cell-based; conditions: dose 1-5 µM

SMILES	Activity (HCT-116 [1])	Activity (HCT-116 [2])	IC50 (Histone deacetylase) [µM]	Activity (U-937 [3])	Activity [4]	Activity (U-937 [5])	Activity (U-937 [6])	Activity (HCT-116 [7])	Activity (U-937 [8])	Activity (U-937 [9])	Activity [10]	Activity (HCT-116 [11]) [%]	Activity [12]	Activity [13]	inhibition [14] [%]	inhibition (Histone deacetylase 1 [15]) [%]	Activity [16]	Activity (HCT-116 [17])	Activity (HCT-116 [18])	IC50 (Histone deacetylase 1 [19]) [µM]	other results
O=C(CCCCCN1C(=O)CC(c2c3ccccc3cc3ccccc23)Sc2ccccc21)NO (racemic)	Active	Active	0.246	Active	Active	Active	Active	Active	Active	Active	Active	22	Active								
O=C(CCCCCN1C(=O)CC(c2cccc3ccccc23)Sc2ccccc21)NO (racemic)	Active	Active	0.2593	Active	Active	Active	Active	Active	Active	Active	Active	22	Active	Active							
O=C(CCCCCN1C(=O)C[C@H](c2ccc(Cl)c(Cl)c2)Sc2ccccc21)NO	Active	Active	0.2744	Active		Active	Active	Active	Active	Active	Active	22	Active								
Cc1ccc(C2CC(=O)N(CCCCCC(=O)NO)c3ccccc3S2)cc1 (racemic)	Active	Active	0.1234	Active	Active	Active	Active	Active	Active	Active	Active	22	Active								
O=C(CCCCCN1C(=O)CC(c2ccccc2Cl)Sc2ccccc21)NO (racemic)	Active	Active	0.1094	Active	Active	Active	Active	Active	Active	Active	Active	22	Active								
COc1ccc(C2CC(=O)N(CCCCCC(=O)NO)c3ccccc3S2(=O)=O)cc1 (racemic)	Active	Active	0.1146	Active	Active	Active			~6%		Active		Active	Active	95.8	94.2	Active	Active	Active	0.248	Activity (U-937 [20]): Active; Activity (U-937 [21]): Active
O=C(CCCCCN1C(=O)CC(c2ccccc2Cl)S(=O)(=O)c2ccccc21)NO (racemic)	Active	Active	0.0406	Active	Active	Active			~6%		Active		Active	Active	99.4	92.6	Active	Active	Active	0.27	Activity (U-937 [20]): Active; Activity (U-937 [21]): Active
O=C(CCCCCN1C(=O)CC(c2cccc3ccccc23)S(=O)(=O)c2ccccc21)NO (racemic)	Active	Active	0.0779	Active	Active	Active			~6%		Active		Active	Active	99.3	80.9	Active	Active	Active	0.378	Activity (U-937 [20]): Active; Activity (U-937 [21]): Active
Cc1ccc(C2CC(=O)N(CCCCCC(=O)NO)c3ccccc3S2(=O)=O)cc1 (racemic)	Active	Active	0.0422	Active	Active	Active			~6%		Active		Active	Active	98.6	93.5	Active	Active	Active	0.175	Activity (U-937 [20]): Active; Activity (U-937 [21]): Active
O=C(CCCCCCC(=O)Nc1ccc([C@H]2O[C@@H](CSc3nc(-c4ccccc4)c(-c4ccccc4)o3)C[C@@H](c3ccc(CO)cc3)O2)cc1)NO															94.3						
COc1ccc(C2CC(=O)N(CCCCCC(=O)NO)c3ccccc3S2)cc1 (racemic)	~75%	Active	0.1183	Active	Active	Active	Active	Active	Active	Active	Active	22	Active								

From ChEMBL document CHEMBL5365438, “2-Substituted 1,5-benzothiazepine-based HDAC inhibitors exert anticancer activities on human solid and acute myeloid leukemia cell lines” (Bioorg Med Chem, 2023)
